In patent publication US20200282052A1, “A COMBINATION THERAPY WITH APATINIB FOR THE TREATMENT OF CANCER” (Elevar Therapeutics, Inc., priority 2017, published 2020):
Counter-ions that a name gives are not always drawn.

Assays:
[1] = in vivo; cited from earlier work
[2] = biological target: c-Kit (Homo sapiens, UniProt P10721); details: cited from earlier work
[3] = tested on: advanced or metastatic gastric cancer; details: cited from earlier work
[4] = healthy volunteers, cited from earlier work
[5] = tested on: tumor bearing animal models; details: cited from earlier work
[6] = tested on: mouse LL/2 lung carcinoma; test: LL/2 lung carcinoma syngeneic mouse model; assay type: in vivo; details: day 20; apatinib mesylate 300 mg/kg p.o. q.d., anti-muPD-1 antibody 10 mg/kg i.p. b.i.w.; C57BL/6 mice
Description: 40 female C57BL/6 mice purchased from Jackson Laboratories were enrolled on the study. Animals were housed for stabilization period. Animals were housed in individual HEPA ventilated cages (Innocage® IVC, Innovive USA). Fluorescent lighting was provided on a 12-hour cycle. Temperature and humidity was monitored and recorded daily and maintained to the maximum extent possible between 68-74° F. (20-23° C.) and 30-70% humidity, respectively. 2920×.10 18% soy irradiated rodent feed (Harlan) and autoclaved acidified water (pH 2.5-3) was provided ad libitum.
For inoculation, LL/2 cell viability was at 98%. Cryo vials containing LL/2 cells were thawed and prepared for injection into mice. On study day −3 cells were washed in PBS, counted, and re-suspended in cold PBS at concentrations of 250,000 viable cells/100 μL. Cell suspensions were mixed with PBS and kept on ice during transport to the vivarium. Cells for injections were prepared by withdrawing the PBS-cell mixture into a chilled 1 mL Lure-lok syringe fitted with a 26 7/8 G (0.5 mm×22 mm) needle. […]
Animals were monitored weekly for palpable tumors, or any changes in appearance or behavior. Once tumors were palpable, they were measured 3 times a week using calipers. Tumor volume was calculated using the following equation (longest diameter×shortest diameter 2)/2.
Body weight was measured at least three times a week. […]

[7] = biological target: VEGFR-2 (Homo sapiens, UniProt P35968); details: nonclinical studies; cited from earlier work
Sequence of VEGFR-2 (P35968 20-1356, species assumed): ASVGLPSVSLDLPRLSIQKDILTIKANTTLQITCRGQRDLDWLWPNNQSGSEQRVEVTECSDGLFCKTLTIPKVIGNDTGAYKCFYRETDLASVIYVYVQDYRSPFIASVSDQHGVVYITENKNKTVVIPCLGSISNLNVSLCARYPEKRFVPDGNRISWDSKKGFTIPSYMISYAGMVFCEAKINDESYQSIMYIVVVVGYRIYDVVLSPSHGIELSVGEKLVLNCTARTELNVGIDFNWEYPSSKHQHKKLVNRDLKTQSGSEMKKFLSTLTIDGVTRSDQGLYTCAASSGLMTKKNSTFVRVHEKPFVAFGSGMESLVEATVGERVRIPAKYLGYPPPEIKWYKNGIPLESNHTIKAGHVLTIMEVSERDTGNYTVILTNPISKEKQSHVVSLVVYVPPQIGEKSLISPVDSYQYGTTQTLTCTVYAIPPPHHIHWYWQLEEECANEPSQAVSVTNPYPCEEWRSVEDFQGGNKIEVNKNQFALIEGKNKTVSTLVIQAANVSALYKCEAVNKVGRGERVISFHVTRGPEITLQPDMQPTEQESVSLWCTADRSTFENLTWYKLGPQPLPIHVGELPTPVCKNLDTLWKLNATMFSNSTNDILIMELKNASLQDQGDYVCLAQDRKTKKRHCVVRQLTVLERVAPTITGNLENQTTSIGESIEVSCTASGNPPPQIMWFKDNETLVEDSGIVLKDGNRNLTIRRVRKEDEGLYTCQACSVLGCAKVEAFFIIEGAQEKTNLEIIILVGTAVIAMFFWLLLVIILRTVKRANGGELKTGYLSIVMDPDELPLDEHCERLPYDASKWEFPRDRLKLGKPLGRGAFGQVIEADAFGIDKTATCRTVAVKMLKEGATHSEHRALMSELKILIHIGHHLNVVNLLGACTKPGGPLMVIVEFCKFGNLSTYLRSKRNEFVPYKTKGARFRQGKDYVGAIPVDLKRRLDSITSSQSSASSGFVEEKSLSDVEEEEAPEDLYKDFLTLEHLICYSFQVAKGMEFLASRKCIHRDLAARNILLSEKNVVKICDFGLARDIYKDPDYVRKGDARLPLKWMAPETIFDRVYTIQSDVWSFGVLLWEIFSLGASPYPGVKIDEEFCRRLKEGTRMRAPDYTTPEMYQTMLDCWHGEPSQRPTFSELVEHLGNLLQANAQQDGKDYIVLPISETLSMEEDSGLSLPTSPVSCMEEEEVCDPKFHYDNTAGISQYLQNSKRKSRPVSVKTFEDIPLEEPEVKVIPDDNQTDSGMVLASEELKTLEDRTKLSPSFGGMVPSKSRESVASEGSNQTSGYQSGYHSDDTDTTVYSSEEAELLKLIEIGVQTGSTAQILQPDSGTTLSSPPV

[8] = biological target: c-SRC (Homo sapiens, UniProt P12931); details: cited from earlier work
Sequence of c-SRC (P12931 whole entry, species assumed): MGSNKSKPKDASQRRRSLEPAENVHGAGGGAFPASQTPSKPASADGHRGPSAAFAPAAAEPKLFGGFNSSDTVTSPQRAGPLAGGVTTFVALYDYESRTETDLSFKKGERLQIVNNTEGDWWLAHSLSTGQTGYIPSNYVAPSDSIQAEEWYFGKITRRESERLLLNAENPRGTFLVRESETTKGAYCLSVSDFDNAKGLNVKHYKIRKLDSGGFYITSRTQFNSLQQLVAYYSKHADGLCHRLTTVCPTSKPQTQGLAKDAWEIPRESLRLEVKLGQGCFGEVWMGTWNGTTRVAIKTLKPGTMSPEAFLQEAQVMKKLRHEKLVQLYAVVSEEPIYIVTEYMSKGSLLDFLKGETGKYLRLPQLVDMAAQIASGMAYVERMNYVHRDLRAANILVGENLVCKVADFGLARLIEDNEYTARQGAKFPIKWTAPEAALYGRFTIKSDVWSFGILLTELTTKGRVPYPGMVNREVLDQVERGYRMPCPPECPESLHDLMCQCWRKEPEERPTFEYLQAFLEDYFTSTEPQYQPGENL

[9] = single dose, cited from earlier work

Sequence of c-Kit (P10721 26-976): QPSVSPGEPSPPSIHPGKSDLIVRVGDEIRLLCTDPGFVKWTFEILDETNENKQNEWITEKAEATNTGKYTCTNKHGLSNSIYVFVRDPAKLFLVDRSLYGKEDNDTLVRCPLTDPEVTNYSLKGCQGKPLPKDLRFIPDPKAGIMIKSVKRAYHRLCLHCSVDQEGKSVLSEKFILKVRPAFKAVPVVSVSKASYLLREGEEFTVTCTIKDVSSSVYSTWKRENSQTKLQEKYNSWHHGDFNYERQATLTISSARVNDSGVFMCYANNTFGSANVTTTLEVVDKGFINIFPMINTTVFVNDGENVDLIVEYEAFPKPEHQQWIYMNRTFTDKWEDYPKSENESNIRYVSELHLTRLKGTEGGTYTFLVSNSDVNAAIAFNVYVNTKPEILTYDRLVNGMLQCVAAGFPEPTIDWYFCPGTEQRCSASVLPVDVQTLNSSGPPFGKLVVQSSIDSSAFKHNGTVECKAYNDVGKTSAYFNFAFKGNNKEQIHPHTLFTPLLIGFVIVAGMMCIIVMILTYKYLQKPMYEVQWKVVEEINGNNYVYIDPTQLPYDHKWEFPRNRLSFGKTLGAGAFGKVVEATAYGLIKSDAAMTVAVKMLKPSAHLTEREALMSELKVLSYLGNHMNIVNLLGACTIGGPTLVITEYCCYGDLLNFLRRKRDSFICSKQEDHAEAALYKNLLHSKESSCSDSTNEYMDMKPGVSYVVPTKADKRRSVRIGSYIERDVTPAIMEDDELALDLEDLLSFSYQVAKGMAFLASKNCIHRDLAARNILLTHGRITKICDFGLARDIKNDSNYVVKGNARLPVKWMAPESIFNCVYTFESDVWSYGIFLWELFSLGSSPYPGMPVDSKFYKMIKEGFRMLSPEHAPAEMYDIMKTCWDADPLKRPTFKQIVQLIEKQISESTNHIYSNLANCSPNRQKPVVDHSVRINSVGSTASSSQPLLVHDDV

SMILES | Safety Profile: Central nervous system [1] | Safety Profile: Musculoskeletal/bone [1] | Safety Profile: Renal [1] | Safety Profile: Liver/Bile [1] | Safety Profile: Heart [1] | other results
Cc1cn(-c2cc(NC(=O)c3ccc(C)c(Nc4nccc(-c5cccnc5)n4)c3)cc(C(F)(F)F)c2)cn1 [Nilotinib] | R | R | R |  |  | Safety Profile: GI [1]: R; Safety Profile: Vascular [1]: R
Cc1nc(Nc2ncc(C(=O)Nc3c(C)cccc3Cl)s2)cc(N2CCN(CCO)CC2)n1 [Dasatinib] | R | R | R | R |  | 
N#CC1(c2ccc(NC(=O)c3cccnc3NCc3ccncc3)cc2)CCCC1 [Rivoceranib, N-[4-(1-cyanocyclopentyl)phenyl]-2-{[(pyridin-4-yl)methyl]amino} pyridine-3-carboxamide] |  |  |  |  |  | inhibition of c-Kit tyrosine kinase [2]: mildly inhibits; median overall survival (OS) compared to placebo ([3]; Phase 3): prolonged; median progression-free survival (PFS) compared to placebo ([3]; Phase 3): prolonged; patients with Grade ¾ adverse reactions ([3]; hypertension, HFS, proteinuria, fatigue, anorexia, and elevated aminotransferase): more than 2%; food effects on the bioavailability ([4]; 81 mg rivoceranib dose): minimal; increase in bioavailability with food ([4]; 201 mg dose): 20-30%; side effects in animals ([5]; at efficacious doses): minimal side effects; efficacy in various tumor bearing animal models ([5]; nonclinical studies): efficacious; % Tumor growth inhibition [6]: 37%; binding to VEGFR-2 [7]: selectively binds; inhibition of c-SRC tyrosine kinase [8]: mildly inhibits
N#CC1(c2ccc(NC(=O)c3cccnc3NCc3ccncc3)cc2)CCCC1 [rivoceranib mesylate] |  |  |  |  |  | AUC0-∞ in Chinese and Japanese subjects compared to Caucasian subjects ([9]; healthy male): slightly higher; Cmax in Chinese and Japanese subjects compared to Caucasian subjects ([9]; healthy male): slightly higher; t1/2 ([9]; similar amongst Caucasian, Japanese and Chinese groups): 7.5 to 8 h
Cc1ccc(Nc2nccc(N(C)c3ccc4c(C)n(C)nc4c3)n2)cc1S(N)(=O)=O [Pazopanib] |  |  |  |  | R | 
CS(=O)(=O)CCNCc1ccc(-c2ccc3ncnc(Nc4ccc(OCc5cccc(F)c5)c(Cl)c4)c3c2)o1 [Lapatinib] | R |  |  |  | R | 
CNC(=O)c1cc(Oc2ccc(NC(=O)Nc3ccc(Cl)c(C(F)(F)F)c3)cc2)ccn1 [Sorafenib] | R | R | R | R | R | Safety Profile: GI [1]: R; Safety Profile: Lung airways [1]: R
C#Cc1cccc(Nc2ncnc3cc(OCCOC)c(OCCOC)cc23)c1 [Erlotinib] | R |  |  | R |  | Safety Profile: Blood/lymph system [1]: R
CCN(CC)CCNC(=O)c1c(C)[nH]c(/C=C2\C(=O)Nc3ccc(F)cc32)c1C [Sunitinib] | R |  |  | R | R | 
